Source: PubChem BioAssay (NCI)
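Test compounds were applied to cells in 96-well plates for 48 hours at 5 doses. GI50 = concentration required for 50% inhibition of growth. TGI denotes the concentration required for complete inhibition of growth.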

What was measured:
Experiment in all cases: inhibition of tumour cell growth, NCI panel, 48 h
HT29 colon = tested on: HT29 colon
MOLT-4 leukemia = tested on: MOLT-4 leukemia
NCI-H460 lung = tested on: NCI-H460 lung
RXF 393 renal = tested on: RXF 393 renal
SF-295 CNS = tested on: SF-295 CNS
SK-MEL-28 melanoma = tested on: SK-MEL-28 melanoma
SK-MEL-5 melanoma = tested on: SK-MEL-5 melanoma
SK-OV-3 ovarian = tested on: SK-OV-3 ovarian
SNB-19 CNS = tested on: SNB-19 CNS
UACC-257 melanoma = tested on: UACC-257 melanoma

| SMILES | GI50 (HT29 colon) [µM] | TGI (HT29 colon) [µM] | GI50 (MOLT-4 leukemia) [µM] | TGI (MOLT-4 leukemia) [µM] | GI50 (NCI-H460 lung) [µM] | TGI (NCI-H460 lung) [µM] | GI50 (RXF 393 renal) [µM] | TGI (RXF 393 renal) [µM] | GI50 (SF-295 CNS) [µM] | TGI (SF-295 CNS) [µM] | GI50 (SK-MEL-28 melanoma) [µM] | TGI (SK-MEL-28 melanoma) [µM] | GI50 (SK-MEL-5 melanoma) [µM] | TGI (SK-MEL-5 melanoma) [µM] | GI50 (SK-OV-3 ovarian) [µM] | TGI (SK-OV-3 ovarian) [µM] | GI50 (SNB-19 CNS) [µM] | TGI (SNB-19 CNS) [µM] | GI50 (UACC-257 melanoma) [µM] | TGI (UACC-257 melanoma) [µM] |
| --- | --- | --- | --- | --- | --- | --- | --- | --- | --- | --- | --- | --- | --- | --- | --- | --- | --- | --- | --- | --- |
| CCOC(=O)c1c(C)nc2ccc(Cl)cc2c1-c1ccccc1 | 16.1 | 75.3 | 16.3 | 43.4 | 20.2 | 45.2 | 17.3 | 47.4 | 19.4 | 46.8 | 19.6 | 52.4 | 14.5 | 29 | 19.1 | 45.6 | 14.4 | 34.9 | 25.5 | 83.1 |
| S=c1nc2[nH]ncc2c(N/N=C/c2ccccc2)[nH]1 | – | – | > 100 | > 100 | 93.6 | > 100 | > 100 | > 100 | > 100 | > 100 | > 100 | > 100 | 41.3 | > 100 | > 100 | > 100 | > 100 | > 100 | > 100 | > 100 |
| CC(=O)NC(CCCCNC(=O)N(CCCl)N=O)C(=O)NCc1ccccc1 (centres undefined) | – | > 100 | – | > 100 | – | > 100 | – | – | – | > 100 | – | > 100 | – | – | – | – | – | > 100 | – | > 100 |
| O=C(/C=C\c1cccc2ccccc12)c1cccs1 | – | 17.4 | – | 35.8 | – | 27.7 | – | – | – | 34.6 | – | 28 | – | 26.1 | – | 31.7 | – | 25.3 | – | 26.1 |
| COC(=O)C(=O)C(C(=O)C(=O)Nc1ccc(Cl)cc1C)c1nc2ccc(C(=O)c3ccccc3)cc2[nH]c1=O (centres undefined) | – | > 100 | – | > 100 | – | > 100 | – | > 100 | – | > 100 | – | – | – | – | – | > 100 | – | > 100 | – | > 100 |
| C/C(CC(=O)NNc1ccc([N+](=O)[O-])cc1)=N\Nc1ccc([N+](=O)[O-])cc1 | 7.66 | > 100 | 6.45 | > 100 | 4.14 | > 100 | 17.7 | 46.5 | 2.96 | 18.4 | 31.5 | > 100 | 2.13 | 5.42 | – | – | 29.7 | > 100 | 39.6 | > 100 |
| COC(=O)C(C(=O)C(=O)NC1=C(Cl)C(=O)c2ccccc2C1=O)c1csc(-n2nc(-c3ccccc3)cc2-c2ccccc2)n1 (centres undefined) | – | > 100 | – | > 100 | – | > 100 | – | > 100 | – | > 100 | – | – | – | – | – | > 100 | – | > 100 | – | > 100 |
| Cc1ccc([N+](=O)[O-])cc1NC(=O)C(=O)Cc1occc(=O)c1O | – | > 100 | – | – | – | > 100 | – | > 100 | – | > 100 | – | > 100 | – | > 100 | – | > 100 | – | > 100 | – | – |
| COC(=O)/C(C#N)=C1\CCC(O)N1C (centres undefined) | – | > 100 | – | > 100 | – | > 100 | – | > 100 | – | > 100 | – | > 100 | – | – | – | > 100 | – | > 100 | – | > 100 |
| CC1(C)OC(C(N)=O)=C(C(N)=O)O1 | – | > 100 | – | > 100 | – | > 100 | – | > 100 | – | > 100 | – | > 100 | – | – | – | > 100 | – | > 100 | – | > 100 |
| COc1ccc(C(c2ccc(C(C)C)cc(=O)c2O)c2ccc3cccnc3c2O)cc1 (centres undefined) | – | 20.2 | – | > 100 | – | 10.1 | – | – | – | 7.43 | – | – | – | 2.41 | – | 16.4 | – | – | – | – |
| CC(C)NCC(O)COC(=O)c1cccs1 (centres undefined) | – | > 100 | – | > 100 | – | > 100 | – | > 100 | – | – | – | > 100 | – | > 100 | – | > 100 | – | > 100 | – | > 100 |
| O=C1C(=O)N(C(=O)c2ccc(Cl)c(Cl)c2)c2ccc(Cl)cc21 | – | > 100 | – | > 100 | – | > 100 | – | > 100 | – | > 100 | – | > 100 | – | > 100 | – | > 100 | – | > 100 | – | – |
| C#CCN=C(N/N=C/c1ccc([N+](=O)[O-])o1)NS(=O)(=O)c1cc(C)c(Cl)cc1SCC(N)=O | 26.3 | > 100 | 13.2 | 31.9 | 12.5 | 29.9 | – | – | 22.8 | 47.1 | 14.5 | 32.7 | 4.14 | 15.2 | 49.2 | > 100 | 50.6 | > 100 | 13.9 | 27 |
| CN(C)C(=O)/N=c1\ss/c(=N\C(=S)N(C)C)n1-c1ccccc1 | – | – | 0.158 | > 82.1 | – | > 100 | – | > 79.9 | – | > 100 | – | > 56.6 | – | > 100 | – | > 100 | – | > 100 | – | 28.6 |
| CN=C1Nc2ccc(Cl)cc2C(c2ccccc2)=NN1C | – | > 100 | – | > 100 | – | > 100 | – | 81.1 | – | > 100 | – | > 100 | – | > 100 | – | – | – | > 100 | – | > 100 |
| N/C(=N\N=C\c1cccs1)NO | – | > 100 | – | – | – | > 100 | – | > 100 | – | > 100 | – | > 100 | – | – | – | > 100 | – | > 100 | – | > 100 |
| COc1cc(C#N)cc(OC)c1OCCOCCOc1c(OC)cc(C#N)cc1OC | > 100 | > 100 | 21.3 | > 100 | 84.6 | > 100 | – | – | 84.9 | > 100 | > 100 | > 100 | 69.8 | > 100 | > 100 | > 100 | 94.4 | > 100 | 99.1 | > 100 |
| C#CCOCn1cnc2c(=S)nc[nH]c21 | – | > 100 | – | – | – | > 100 | – | > 100 | – | > 100 | – | > 100 | – | > 100 | – | > 100 | – | > 100 | – | > 100 |
| NC(CNO)C(=O)O (centres undefined) | – | > 100 | – | – | – | > 100 | – | > 100 | – | > 100 | – | > 100 | – | > 100 | – | > 100 | – | > 100 | – | > 100 |
| CCc1ccccc1NC(=O)CCc1n[nH]c(=S)o1 | – | > 100 | – | > 100 | – | > 100 | – | – | – | > 100 | – | > 100 | – | > 100 | – | > 100 | – | > 100 | – | > 100 |
| O=c1cc(-c2ccc(Cl)cc2)[nH]c2ncccc12 | – | > 100 | – | > 100 | 37.9 | > 100 | – | – | 40.7 | > 100 | – | > 100 | 29 | > 100 | – | > 100 | – | > 100 | – | > 100 |
| CCC1=C(C)/C(=C/c2[nH]c(CBr)c(CC)c2C)N=C1CBr | – | 26.7 | – | 27.6 | – | 38.9 | – | 54 | – | 42.7 | – | 34.2 | – | 30.5 | – | 45 | – | 33.9 | – | – |
| O=c1c2ccccc2nc(-c2ccc(Br)cc2)n1NC1OC(CO)C(O)C(O)C1O (centres undefined) | – | > 100 | – | > 100 | – | > 100 | – | – | – | > 100 | – | > 100 | – | > 100 | – | > 100 | – | > 100 | – | > 100 |
| COc1cc(/C=C2\[C@H]3c4c(c(OC)c(C)c(OC)c4OC)C[C@@H](C(=O)N2Cc2ccccc2)N3C(=O)OC(C)C)c(OC)c(C)c1OC | – | > 100 | – | > 100 | – | > 100 | – | > 100 | – | > 100 | – | > 100 | – | > 100 | – | > 100 | – | – | – | > 100 |
| Cc1ccc(S(=O)(=O)/N=c2\ssc(Nc3ccccc3)c2Cl)cc1 | 17.2 | > 50 | 10.3 | > 50 | 9.02 | 19.6 | 13.6 | 46.1 | 1.15 | 12.4 | – | – | 6.2 | 12.4 | 15.3 | > 50 | 12.8 | > 50 | 9.86 | 30.3 |
| COc1cc(/C=C/C(=O)c2ccc(Nc3ncnc4ccccc34)cc2)cc(OC)c1 | 2.07 | 4.05 | 2.4 | 17.1 | 14.2 | > 100 | 2.11 | 9.32 | 4.31 | 29.2 | 15.4 | 34.4 | – | – | 3.6 | 10.7 | 9.99 | 83.2 | 9.7 | 34.1 |
| CCCCCCCC/C=C/CCCCCCCC1=NC(C)(C)CN1C(C)C | 0.576 | 1.86 | – | – | 1.7 | 3.07 | 1.58 | 3.04 | 1.64 | 3.07 | 1.53 | 2.86 | 1.61 | 2.96 | 1.32 | 2.59 | 2.17 | 7.49 | 1.86 | 3.4 |
| Oc1ccc(CNCc2ccccc2)c2cccnc12 | – | > 100 | – | 18.9 | – | 0.184 | – | – | – | 61.4 | – | > 100 | – | – | – | > 76.9 | – | > 100 | – | 0.816 |
